Results on eleven compounds are retold here after patent US11510914B2, “Agent for inhibiting rise in intraneuronal calcium concentration” (Toray Industries, Inc., priority 2018, dated 2022).

In the assay the test system is rat spinal dorsal root ganglion (DRG) neurons. Kind of assay: High potassium-induced rise in intracellular calcium concentration of rat DRG neurons (Cal-520 AM fluorescence imaging). It counts as cell-based. The following applies: compound 30 μmol/L; for inhibition at 30 µM: Rattus norvegicus, DRG neuron, vehicle group = 0%, read-out: Inhibition rate (%) of a rise in intracellular calcium concentration; for Inhibition of high potassium-induced rise in intracellular calcium concentration, in words: KCl 30 mmol/L, compared to vehicle treatment group, Table 5 experiment. An excerpt:
Example 4 Effect of the cyclic amine derivative (I) or a pharmacologically acceptable salt thereof on high potassium-induced rise in intracellular calcium concentration of rat spinal dorsal root ganglion (DRG) neurons:
The cyclic amine derivative (I) or a pharmacologically acceptable salt thereof was examined for its inhibitory effect on high potassium-induced rise in intracellular calcium concentration of DRG neurons.
The SD rats (4 to 6 weeks old, male; Charles River Laboratories Japan, Inc.) were anesthetized and euthanized by bloodletting from abdominal aorta. After incision of the dorsal part, the spinal column was excised and cooled in ice. The dorsal column was cut off, and the spinal cord was removed from the ventral side of the spinal column. Then, DRGs (L4 to L6) with nerve fibers were excised with tweezers. The excised DRGs were dipped in ice-cold Leibovitz's L-15 medium (Thermo Fisher Scientific), and the nerve fibers were removed under a stereoscopic microscope to separate DRG.
The separated DRGs were made fine slits with ophthalmic scissors, followed by incubation at 37° C. for 20 minutes with Collagenase A (Roche Molecular Systems). After centrifugation at 200×g for 5 minutes, the supernatant was removed, and 0.05% Trypsin-EDTA (Thermo Fisher Scientific) was added, followed by incubation at 37° C. for 5 minutes. DMEM (Thermo Fisher Scientific) containing 1% penicillin-streptomycin (Thermo Fisher Scientific) and 10% fetal bovine serum (Thermo Fisher Scientific) was added thereto. After centrifugation at 200×g for 5 minutes, the supernatant was removed. After the removal of the supernatant, Neurobasal-A Medium (Thermo Fisher Scientific) containing 1% penicillin-streptomycin and 2% B-27 (Thermo Fisher Scientific), which was prepared as a DRG nerve culture medium, was added. Then, the cells were dissociated by micropipetting. The dissociated cells were passed through a 70 μm cell strainer (Greiner) and centrifuged at 200×g for 5 minutes. After the centrifugation, the supernatant was removed, and the cells were suspended by the culture medium. This cell suspension was inoculated to a polylysine-coated 35 mm dish (Matsunami Glass Ind., Ltd.) coated in advance with laminin (Sigma-Aldrich), cultured overnight at 37° C. under 5% CO2, and then used in the measurement of change in intracellular calcium concentration.
Cal-520, AM(registered trademark) (AAT Bioquest) was used as a calcium fluorescent dye. The medium was removed from the cells cultured in the dish, and the cells were washed twice with a perfusate. Then, a Cal-520, AM solution adjusted to 4 μmol/L was added thereto, and the cells were cultured at 37° C. for 1 to 1.5 hours under 5% CO2. The perfusate was an aqueous solution containing NaCl (140 mmol/L), KCl (5 mmol/L), CaCl2)·2H2O (1.2 mmol/L), MgCl2.6H2O (2 mmol/L), D(+)-glucose (14 mmol/L) and HEPES (10 mmol/L), adjusted to pH 7.4. Then, the dish was washed by perfusion at 2 mL/min for 10 minutes.
Change in intracellular calcium concentration was measured by analyzing with analytical software, change in fluorescence intensity of the cells loaded with the calcium fluorescent dye in images taken under a confocal laser microscope system (Nikon Instech Co., Ltd.). The laser wavelength was 488 nm, and the images were acquired at intervals of 57 to 60 sheets per minute.
For the induction of neuronal excitation, a treatment with a high potassium solution (hereinafter, “high potassium treatment”) was performed to induce a rise in intracellular calcium concentration by the depolarization of cell membranes. The high potassium treatment and a treatment with the cyclic amine derivative (I) or a pharmacologically acceptable salt thereof (compounds 1 to 10, compound of Comparative Example 1 and compound of Comparative Example 2) (hereinafter, “compound treatment”) of the cells were performed by the perfusion and replacement of a solution. The perfusion rate was controlled to 2 mL/min using a tube pump. […]
In general terms: A change in cytosolic calcium serves as a functional read-out for many receptors and channels.

The mark [1] stands for this setting: high potassium treatment (KCl 30 mmol/L), average of 60 to 250 cells per group.
The mark [2] stands for this setting: high potassium treatment (KCl 32.5 mmol/L or 30 mmol/L), average of 106 to 262 cells per group.

Like-named read-outs stand apart in the source and are kept apart here.

Turning to `CN1CCN(C2CCN(C(=O)CC(O)c3nccn3C)CC2)CC1` (stereo not shown) [Compound 6, 3-hydroxy-3-(1-methyl-1H-imidazol-2-yl)-1-(4-(4-methylpipzerazin-1-yl)piperidin-1-yl)propan-1-one], under setting [1], the inhibition at 30 µM was 23.3%.
`CCn1ccnc1C(O)CC(=O)N1CCC(N(C)C)CC1` (stereo not shown) [Compound 1, 1-(4-(dimethylamino)piperidin-1-yl)-3-(1-ethyl-1H-imidazol-2-yl)-3-hydroxypropan-1-one]: the inhibition at 30 µM under setting [2] was 35.5%.
With `CN(C)[C@@H]1CCCN(C(=O)CC(O)c2nccn2C)C1` (stereo partly shown) [Compound 5], the inhibition at 30 µM under setting [1] came to 39%.
`CN(C)C1CCN(C(=O)CC(O)c2nccn2CC(F)(F)F)CC1` (stereo not shown) [Compound 3, 1-(4-(dimethylamino)piperidin-1-yl)-3-hydroxy-3-(1-(2,2,2-trifluoroethyl)-1H-imidazol-2-yl)propan-1-one]: the inhibition at 30 µM under setting [2] amounted to 17.8%.
In the case of `CN(C)C1CCN(C(=O)CC(O)c2ncc(Cl)n2C)CC1` (stereo not shown) [Compound 9, 3-(5-chloro-1-methyl-1H-imidazol-2-yl)-1-(4-(dimethylamino)piperidin-1-yl)-3-hydroxypropan-1-one], under setting [1], the inhibition at 30 µM turned out to be 7.1%.
`CCCn1ccnc1C(O)CC(=O)N1CCC(N(C)C)CC1` (stereo not shown) [Compound 7, 1-(4-(dimethylamino)piperidin-1-yl)-3-(1-propyl-1H-imidazol-2-yl)-3-hydroxypropan-1-one]: the inhibition at 30 µM under setting [1] was found to be 15.4%.
Turning to `CN(C)C1CCN(C(=O)CC(O)c2nccn2CCC(F)(F)F)CC1` (stereo not shown) [Compound of Comparative Example 2, 1-(4-(dimethylamino)piperidin-1-yl)-3-(1-(3,3,3-trifluoropropyl)-1H-imidazol-2-yl)-3-hydroxypropan-1-one, reference compound], the “Inhibition of high potassium-induced rise in intracellular calcium concentration, in words” value is reported as “not inhibited”. In addition, the inhibition at 30 µM under setting [1] is -1.1%.
`CN(C)C1CCN(C(=O)CCc2nccn2C)CC1` [Compound 4, 1-(4-(dimethylamino)piperidin-1-yl)-3-(1-methyl-1H-imidazol-2-yl)propan-1-onesulfatemonohydrate]: the inhibition at 30 µM under setting [2] was 11.9%.
Regarding `CC(C)n1ccnc1C(O)CC(=O)N1CCC(N(C)C)CC1` (stereo not shown) [Compound 10, 1-(4-(dimethylamino)piperidin-1-yl)-3-(1-isopropyl-1H-imidazol-2-yl)-3-hydroxypropan-1-one], under setting [1], the inhibition at 30 µM turned out to be 5.9%.
On to `COCCn1ccnc1C(O)CC(=O)N1CCC(N(C)C)CC1` (stereo not shown) [Compound of Comparative Example 1, 1-(4-(dimethylamino)piperidin-1-yl)-3-(1-(2-methoxyethyl)-1H-imidazol-2-yl)-3-hydroxypropan-1-one, reference compound], for which the “Inhibition of high potassium-induced rise in intracellular calcium concentration, in words” value is “not inhibited”. Further, the inhibition at 30 µM under setting [1] was -3.3%.
`CN(C)C1CCN(C(=O)C[C@H](O)c2nccn2C)CC1` [Compound 2, (S)-1-(4-(dimethylamino)piperidin-1-yl)-3-hydroxy-3-(1-methyl-1H-imidazol-2-yl)propan-1-one]: the inhibition at 30 µM under setting [2] stood at 19.3%.
